Data on two compounds can be found in PubChem BioAssay (NCI).

SMILES strings stand for the structures.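 96-well plates; 48 h exposure; 5 concentrations. Endpoints by linear interpolation between flanking doses. Not reached: highest tested concentration assigned. The concentration for full growth arrest is given as TGI.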 Some results are limits rather than exact numbers.

Some test systems named below: A498 renal; CAKI-1 renal; HOP-92 NSCLC; HT29 colon; MCF7 breast; MDA-N; RXF 393 renal; SF-295 CNS; SK-MEL-28 melanoma; SN12C renal.
Common to all, as to assay: NCI tumour cell line growth inhibition, 48 h

On to `COC(=O)C1C(C(=O)OC)C1(Br)CBr` (stereo not given), for which the TGI in the test with A498 renal was over 100 µM; in the test with CAKI-1 renal it was 31.6 µM; in the test with HOP-92 NSCLC, 54.9 µM; in the test with HT29 colon, 63.3 µM; in the test with MCF7 breast it was over 100 µM; in the test with MDA-N, over 100 µM. Further, the TGI in the test on RXF 393 renal is 41.6 µM; in the test with SF-295 CNS, over 100 µM; in the test with SK-MEL-28 melanoma it was over 100 µM; with SN12C renal, 79.4 µM.
As for `O=[As](O)(O)c1ccc2nc3cc([As](=O)(O)O)ccc3nc2c1`, the TGI with A498 renal, in the test with CAKI-1 renal, in the test with HOP-92 NSCLC, in the test with HT29 colon, in the test with MCF7 breast and in the test with MDA-N was over 100 µM throughout. Further, the TGI in the test with RXF 393 renal, with SF-295 CNS, in the test on SK-MEL-28 melanoma and in the test on SN12C renal was over 100 µM each time.
